Data: PMC9786614, “Nerve Targeting via Myelin Protein Zero and the Impact of Dimerization on Binding Affinity” (Molecules, 2022)
Entries after “also recorded” stand apart in the source; their conditions may differ. Where two headings read alike, the source gives them in different places. Starred links: 1 amine or outer side, 2 acyl side, 3 side chain; linkers in the order of their positions; H or OH if unused. Positions of bridges follow the written chain, without caps; N, C: chain ends. Residues, ends and D or L forms follow the SMILES beside them. Chains are numbered I, II in the order given. *: point of attachment. X1 = CC1(C)C(/C=C/C=C/C=C2/N(CCCCCC(=O)NCCN3C(=O)CC([*:1])C3=O)c3ccc(S(=O)(=O)O)cc3C2(C)C)=[N+](CCCCCC(=O)NCCN2C(=O)CC([*:2])C2=O)c2ccc(S(=O)(=O)[O-])cc21; X2 = CC1(C)C(=C/C=C/C=C/C2=[N+](CCCCS(=O)(=O)O)c3ccc(S(=O)(=O)[O-])cc3C2(C)C)N(CCCCCC(=O)NCCN2C(=O)CC(*)C2=O)c2ccc(S(=O)(=O)O)cc21

What was measured:
[1] = not given; remark: listed apart in the source
[2] = Stacking behavior (absorbance spectra, dilution series); assay type: physicochemical; settings: absorbance spectra in water, dilution series 8 μM to 0.5 μM, normalized
Description: (§1) The molar extinction coefficient (ε), quantum yield (QY), brightness, lipophilicity, serum protein binding, photo- and chemical stability, and stacking behavior were determined according to a slight modification of the protocol put forward by Hensbergen et al.. Sulfonate-(SO3)Cy5(SO3)-COOH [27] was measured and used as a control for QY.
To determine the stacking behavior of the mono- and bi-labeled compounds and their corresponding dyes, a dilution series of Cy5-(P0_101–125)2 and Cy5-P0_101–125 were made, consisting of the dye concentrations ranging from 8 μM to 0.5 μM.
Normalization of the data set for stacking behavior was performed using Equation (1):(1) x(normalized)=(x−xmin)/range of x where range of x= xmax−xmin .

[3] = Photostability (photobleaching); assay type: physicochemical; settings: illumination in 5 min cycles, 30 min in total, Storz D-Light P system at 50 mm, fluorescence read-out
Description: as §1
For photostability measurements, the cuvettes were sealed and illuminated for 5 min (30 min in total) by a modified Storz D-Light P fluorescence imaging system at a distance of 50 mm in a dark environment. After each illumination cycle, the fluorescence intensity was determined.

[4] = biological target: T1, myelin protein zero (P0) (Rattus norvegicus, UniProt P06907); assay: Saturation binding by flow cytometry on P0-expressing Schwannoma cells; settings: for Nonspecific binding: saturation binding fit, RT4-D12 cells; for Nonspecific binding / Kd: flow cytometry; for Kd: saturation binding, RT4-D12 Schwannoma cells, 0–2000 nM tracer in 0.1% BSA in PBS, 1 h at 4 °C, triplicate, One site—Total fit
T1 construct: RT4-D12 Schwannoma cells were selected for in vitro experiments based on their origin and their specific P0-expressing properties; endogenous in cells; host or cells: RT4-D12 Schwannoma cells
T1 sequence (P06907 30-248): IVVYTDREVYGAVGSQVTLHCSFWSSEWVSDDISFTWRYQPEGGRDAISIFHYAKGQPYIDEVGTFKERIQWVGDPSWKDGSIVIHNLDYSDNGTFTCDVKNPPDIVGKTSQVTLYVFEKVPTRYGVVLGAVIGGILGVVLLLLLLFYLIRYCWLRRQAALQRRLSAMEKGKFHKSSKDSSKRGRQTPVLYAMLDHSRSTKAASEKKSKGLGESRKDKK
Description: RT4-D12 Schwannoma cells were selected for in vitro experiments based on their origin and their specific P0-expressing properties.
All chemicals were received from Actu-All Chemical (Oss, The Netherlands), Sigma Aldrich (St. Louis, MO, USA), Tokyo Chemical Industry (Tokyo, Japan), Biosolve BV (Valkenswaard, The Netherlands), VWR Chemicals (Solon, OH, USA) and used without further purification. DMF and DMSO were dried over four Å molecular sieves at least for 24 h prior to use. Preparative high-pressure liquid chromatography (prep-HPLC) was performed on a Waters HPLC system (Waters Chromatography B.V., Etten-Leur, The Netherlands) using a 2545 quaternary gradient module pump and a 2489 UV detector. Dr. Maisch ReproSil-Pur 120 C18-AQ 10 μM (250 mm × 20 mm) column (Dr. Maisch HPLC GmbH, Ammerbuch-Entringen, Germany) was applied operating flow rate of 12 mL/min. HPLC analysis was carried out on Waters Alliance 2690 using a Waters symmetry C18 column (2.1 × 150 mm) with a gradient of 0.1% TFA in H2O/MeCN 95:5 to 0.1% TFA in H2O/MeCN 5:95 in 17 min (0.3 mL/min). Mass spectrometry was performed on a Microflex LT/SH MALDI-TOF mass spectrometer (Bruker, Billerica, MA, USA). Lyophilization was performed with a VaCo 2-II lyophilizer (Zirbus technology GmbH, Bad Grund (Harz), Germany). Absorption spectrometry was performed using a UV1280 UV–vis spectrometer (Shimadzu, Kyoto, Japan), and fluorescence spectrometry was performed using an LS55 (Perkin Elmer, Waltham, MA, USA). The fluorescence spectra at different temperatures were measured on an Agilent Cary Eclipse (Agilent Cary Eclipse, Santa Clara, CA, USA). NMR spectra were measured on a Bruker Avance 300 (Bruker, Billerica, MA, USA) operating at 300 MHz for 1 H and 75.00 MHz for 13 C, using the residual solvents (CDCl3 and DMSO-d6) as internal references, and on a Bruker Advance III spectrometer operating at 600 MHz for 1H and equipped with a 2.5 mm PH SEI probe (Bruker, Billerica, MA, USA). For photostability, a prototype D-Light P surgical laparoscope (KARL STORZ, Tuttlingen, Germany) was used. Fluorescence confocal imaging was performed using a SP8 WLL confocal microscope (Leica Microsystems, Wetzlar, Germany). Obtained images were analyzed using Leica Confocal Software (Leica Microsystems). Mean fluorescence intensity values per sample were measured using a LSRII flow cytometer (BD Biosciences, Franklin Lakes, NJ, USA) with APC-A settings (635 nm laser and 750 nm long-pass filter). The binding constant (KD) of the normalized geometric means were fitted with equations in the Prism 5 software (GraphPad, San Diego, CA, USA). Statistical evaluation (Student’s t-test) for all properties was performed in the Prism 5 software. […]
Flow cytometric analysis was performed using RT4-D12 Schwannoma cells after incubation with either Cy5-P0_101–125 or Cy5-(P0_101–125)2. […] Cells were gated on Forward Scatter and Side Scatter, and a minimum of 10,000 viable cells were analyzed per sample. […]
(§2) For evaluation of the differences in signal intensity per concentration between Cy5-P0_101–125 and Cy5-(P0_101–125)2 (5–1000 nM), the mean signal intensity of Cy5-P0_101–125 at 1000nM was set at 100%, and intensities measured at other tracer concentrations or for Cy5-(P0_101–125)2 were calculated as % increase or decrease from this point. The KD values of the evaluated peptides were calculated using the “Binding-Saturation, One site—Total” nonlinear regression equation, as described previously.

[5] = not given; remark: listed apart in the source
[6] = test system: serum protein; assay: Serum protein binding; assay type: in vitro ADME; settings: serum; protocol modified from Hensbergen et al. [34]; mean ± spread
Description: as §1

[7] = test system: RT4-D12 Schwannoma cells; assay: Fluorescence confocal microscopy of P0 staining; assay type: cell-based; settings: 1 h at 4 °C
Description: RT4-D12 Schwannoma cells were trypsinized and seeded onto 35 mm culture dishes that contained a glass insert (MatTek co, Emu Plains, New South Wales, Australia) two days prior to the imaging experiment. Then, 0.5–1000 nM Cy5-P0_101–125 or Cy5-(P0_101–125)2 was added one hour prior to imaging (incubation at 4 °C; n = 3 per tracer). Peptide solutions were sonicated for 20 s prior to addition to prevent aggregation of the peptide in solution. Lysotracker (lysotracker green; 2 µL/mL DND-26, Thermo Fisher, Waltham, MA, USA) and Hoechst (33,342, 1 mg/mL, 1:500, Thermo Fisher) were added to the to provide staining of lysosomes and the nucleus, respectively.
Images were acquired following Cy5 excitation at 633 nm. Emission was collected between 650–700 nm. For visualization of the lysosomes in the cells, a 488 nm laser was used for excitation, while emission was collected between 500–550 nm. Hoechst was excited at 405 nm, and emission was collected between 410–460 nm. Fluorescence confocal images were acquired using a Leica SP8 WL at sequential settings and 63× magnification. Image analysis was performed using Leica Confocal Software (Leica Microsystems). Semi-quantitative analysis of the Cy5 signal intensity was performed using the quantification tool in Fiji software according to previously described methods.

[8] = not given; remark: listed apart in the source
[9] = not given; remark: listed apart in the source
[10] = Lipophilicity logP(o/w); assay type: physicochemical; settings: octanol/water; protocol modified from Hensbergen et al. [34]; mean ± spread
Description: as §1

[11] = Serum protein binding; assay type: in vitro ADME; settings: protocol modified from Hensbergen et al. [34]; mean ± spread
Description: as §1

[12] = Stability towards glutathione; assay type: physicochemical
Description: For the stability towards glutathione, which is used as a measure of stability towards thiols and amines in vivo, 125 µL of a 2 mM solution of the compound in (0.1 M HEPES pH 7.4, pre-sparged with N2) was added to 125 µL of a 4 mM solution of reduced glutathione in 0.1M HEPES pH 7.4 (pre-sparged with N2). The solutions were mixed and then placed in a sample manager. A sample was analyzed at 37 degrees over 6 h in total to determine the amount of compound relative to t = 0.

[13] = test system: RT4-D12 Schwannoma cells; assay: Flow cytometry quantification of fluorescence signal intensity per tracer concentration; assay type: cell-based
Description: Flow cytometric analysis was performed using RT4-D12 Schwannoma cells after incubation with either Cy5-P0_101–125 or Cy5-(P0_101–125)2. For saturation binding experiments, Cy5-labelled peptides were added to the cell samples in a range of 0–2000 nM in 50 µL of 0.1% bovine serum albumin (BSA) in PBS, as previously described. After 1 h of incubation at 4 °C, the cells were washed two times with 300 µL of 0.1% BSA in PBS and re-suspended in 300 µL of 0.1% BSA. Cells were gated on Forward Scatter and Side Scatter, and a minimum of 10,000 viable cells were analyzed per sample. All experiments were performed in triplicate.
as §2

[14] = free dye; previously reported; ref Spa et al. [27]; cited from earlier work
Source text: Table 1 Chemo- and photophysical properties of mono-labeled Cy5-P0_101–125 and bi- labeled Cy5-(P0_101–125)2 and corresponding free cyanine dyes. | column: Sulfonate-(SO3)Cy5(SO3)-COOH *

Molecule	λex in H2O/PBS [nm]	λEm in H2O/PBS [1] [nm]	Photobleaching, % [3] [%]	Nonspecific binding [4]	Kd [4] [µM]	stokes shift [5] [nm]	fraction unbound [6]	P0-related staining at 100 nM tracer [7]	loss of fluorescence intensity with temperature increase [8] [%]	Brightness in PBS [9] [M⁻¹ cm⁻¹]	other results
CC[C@H](C)[C@H](NC(=O)[C@H](CC(=O)O)NC(=O)[C@@H]1CCCN1C(=O)[C@@H]1CCCN1C(=O)[C@H](CC(N)=O)NC(=O)[C@H](CCCCN)NC(C)=O)C(=O)N[C@H](C(=O)NCC(=O)N[C@@H](CCCCN)C(=O)N[C@H](C(=O)N[C@@H](CO)C(=O)N[C@@H](CCC(N)=O)C(=O)N[C@H](C(=O)N[C@H](C(=O)N[C@@H](CC(C)C)C(=O)N[C@@H](Cc1ccc(O)cc1)C(=O)N[C@H](C(=O)N[C@@H](Cc1ccccc1)C(=O)N[C@@H](CCC(=O)O)C(=O)N[C@@H](CCCCN)C(=O)N[C@H](C(=O)N1CCC[C@H]1C(=O)N[C@H](C(=O)N[C@@H](CCCNC(=N)N)C(=O)N[C@@H](Cc1ccc(O)cc1)C(=O)N[C@@H](CSC1CC(=O)N(CCNC(=O)CCCCCN2C(=C/C=C/C=C/C3=[N+](CCCCS(=O)(=O)O)c4ccc(S(=O)(=O)[O-])cc4C3(C)C)C(C)(C)c3cc(S(=O)(=O)O)ccc32)C1=O)C(N)=O)[C@@H](C)O)C(C)C)C(C)C)[C@@H](C)O)C(C)C)[C@@H](C)O)C(C)C (stereo partly shown) [Cy5-P0_101–125] (Ac-KNPPDIVGKTSQVTLYVFEKVPTRYC(X2)-NH2)	650	671	94	0.020	0.105	21	0.11	Only a faint P0-related signal	70	55.7	stacking behavior (dye stacking / aggregation) [2]: higher “shoulder peak”; also recorded: typical “stacking shoulder” appears only for a mono-labeled Cy5-P0_101–125 at higher concentration
COOH-(SO3)Cy5(SO3)-COOH [reference compound]			95								logP(o/w) [10]: −1.62 ± 0.01; Serum protein binding, % [11]: 70 ± 4%; Glutathione stability (at 6 h), % ([12]; 2 mM compound mixed 1:1 with 4 mM reduced glutathione, 0.1 M HEPES pH 7.4 (N2 sparged), 37 degrees, amount relative to t = 0): 95%
I: Ac-KNPPDIVGKTSQVTLYVFEKVPTRYC-NH2 / II: Ac-KNPPDIVGKTSQVTLYVFEKVPTRYC-NH2 (linker I:26-II:26 via X1) [Cy5-(P0_101–125)2]	654	671	71	0.022	0.0703	17	0.37	cells could be clearly discriminated	65	49.2	fold increase in affinity compared to Cy5-P0_101–125 ([4]; from KD values, p = 0.003): 1.5 fold; logP [10]: -0.57 ± 0.01; remaining at 6 h, 1 mM ([12]; HEPES buffer with reduced glutathione, 2 mM compound mixed 1:1 with 4 mM reduced glutathione, 0.1 M HEPES pH 7.4 (N2 sparged), 37 degrees, amount relative to t = 0): 96%; degradation in glutathione stability test ([12]; reduced glutathione, 0.1 M HEPES pH 7.4, 37 degrees, 6 h): 4%; fold increase in staining efficiency compared to Cy5-P0_101–125 ([13]; P0 expressing Schwannoma cells, equal staining at 4-fold lower concentration): ~4 fold; higher fluorescence signal intensity compared to Cy5-P0_101–125 at the same concentration, range ([13]; flow cytometry, tracer 5–1000 nM, RT4-D12 cells): 34–59%; higher fluorescence signal intensity compared to Cy5-P0_101–125 at the same concentration, average ([13]; flow cytometry, tracer 5–1000 nM, RT4-D12 cells, p < 0.00001): 44%
Sulfonate-(SO3)Cy5(SO3)-COOH											Glutathione stability (at 6 h), % [14]: 95%; Net charge [14]: −2; Photobleaching, % [14]: 93%; Serum protein binding, % [14]: 49 ± 8%; logP(o/w) [14]: −1.42 ± 0.00
